Measurements reported in patent US20240309015A1, “Methods for the Treatment of Fibrotic Disease” (SHY Therapeutics, LLC, priority 2021, published 2024).

Key:
KRas G12C mutant = assay: Ras GTP Binding Domain Inhibition Assay, KRas G12C mutant; conditions: at 20 μM; for KRas G12C mutant + SOS: % inh.: with SOS; for KRas G12C mutant: % inh.: without SOS
Protocol: (§1) A Ras Superfamily Activity Assay (as disclosed in International Application No. PCT/US2018/038613, filed Jun. 20, 2018, which is incorporated by reference in its entirety) was used as a specific assay to evaluate compounds against the following for the following Ras Superfamily proteins: KRas wild type, KRas Q61H mutant, KRas G12C mutant, KRas G12D mutant, Rac-1, and Rho-A.
(§2) Buffer-I: • 25 mM Tris-HCl, pH 7.4 • 27 mM KCl • 137 mM NaCl • 1 mM MgCl2 • 1 mM DTT
(§3) Buffer-IL: • 50 mM Tris-HCl, pH 7.0 • 1 mM MgCl2 • 1 mM DTT
(§4) The small GTPases proteins: KRas wild type. KRas Q61H mutant, KRas G12C mutant, KRas G12D mutants, Rac-1, and Rho-A were expressed as His-tagged proteins. In addition, the Guanosine nucleotide Exchange Factor (GEF) Sos protein (residues 556-1049) was expressed as a His-tagged protein. In cells, the guanine nucleotide exchange factor Sos protein promotes activation of Ras proteins by stimulating an exchange of GDP for GTP. The inclusion of Sos to the Ras GTP binding domain inhibition assay may be considered as an alternative representation of physiological cellular conditions for evaluating the inhibitory activity of some of the tested small molecules.
(§5) For the assay, all purified small GTPases proteins were diluted in Buffer-I or Buffer-II to a final concentration of 10-30 μg/mL. 200 μL of each diluted protein was added to a nickel-coated 96-well plate and incubated overnight at 4° C. Then the protein solution was discarded and 200 μL of Buffer-I or Buffer-II was added to each well in the presence of 1% DMSO. Compounds to be tested were added to the protein-coated wells at final concentration of 20 μM, and incubated for 3 hours at room temperature with and without 10-30 μg/mL of Sos added to the final hour of the incubation. When performing IC50 measurements a serial dilution of all tested concentrations was added. Then Cy3-GTP or Cy5-GTP was added to each well to a final concentration of 100 nM. The labeled GTP was incubated for 45 minutes at room temperature. Following GTP incubation, wells were washed 3× in Buffer-I or Buffer-II and 200 μL of Buffer-I or Buffer-II was added to each well. Following washes, the amount of bound labeled-GTP was measured using a SpectraMax M3 (Molecular Devices).

IL-6 = assay: Mouse IL6 Quantification Assay (LPS-stimulated RAW 264.7); assay type: cell-based; design: dose or concentration left out as unconfirmed; conditions: RAW264.7, ELISA, read-out: IL-6: % inh.
TNFα = assay: Mouse TNF Alpha Quantification Assay (LPS-stimulated RAW 264.7); assay type: cell-based; design: dose or concentration left out as unconfirmed; conditions: RAW264.7, ELISA, read-out: TNFα: % inh.
KRas G12D mutant = assay: Ras GTP Binding Domain Inhibition Assay, KRas G12D mutant; conditions: at 20 μM; for KRas G12D mutant + SOS: % inh.: with SOS; for KRas G12D mutant: % inh.: without SOS
Protocol: as §1, §2, §3, §4, §5

Rho-A = assay: Ras GTP Binding Domain Inhibition Assay, Rho-A; conditions: at 20 μM; without SOS
Protocol: as §1, §2, §3, §4, §5

KRas wild type = assay: Ras GTP Binding Domain Inhibition Assay, KRas wild type; conditions: at 20 μM; for KRas wild type + SOS: % inh.: with SOS; for KRas wild type: % inh.: without SOS
Protocol: as §1, §2, §3, §4, §5

Row | Structure (SMILES) | KRas G12C mutant + SOS: % inh. (KRas G12C mutant) | KRas G12C mutant: % inh. (KRas G12C mutant) | KRas G12D mutant + SOS: % inh. (KRas G12D mutant; Table 7) | KRas G12D mutant + SOS: % inh. (KRas G12D mutant; Table 8) | KRas G12D mutant: % inh. (KRas G12D mutant; Table 7) | KRas G12D mutant: % inh. (KRas G12D mutant; Table 8) | Rho-A: % inh. (Rho-A) | KRas wild type + SOS: % inh. (KRas wild type) | KRas wild type: % inh. (KRas wild type) | inhibition (IL-6) [%] | inhibition (TNFα) [%]
1 | COCCn1ccc(-c2sc3nc(-c4nccn4C)nc(N[C@@H]4CC[C@H](OC)C4)c3c2C)n1 (racemic) [Compound 39, rac-N-((1R,3S)-3-Methoxycyclopentyl)-6-(1-(2-methoxyethyl)-1H-pyrazol-3-yl)-5-methyl-2-(1-methyl-1H-imidazol-2-yl)thieno[2,3-d]pyrimidin-4-amine] | D (D = 76-100% inhibition) | D (D = 76-100% inhibition) | D (D = 76-100% inhibition) | D (D = 76-100% inhibition) | C (C = 46-75% inhibition) | C (C = 46-75% inhibition) | C (C = 46-75% inhibition) | D (D = 76-100% inhibition) | D (D = 76-100% inhibition) | 26 to 45 | 0
2 | COc1cccc(-c2sc3nc(-c4nccn4C)nc(N[C@@H]4CC[C@@H](OC)C4)c3c2C)c1F (racemic) [Compound 43, rac-6-(2-Fluoro-3-methoxyphenyl)-N-((1R,3R)-3-methoxycyclopentyl)-5-methyl-2-(1-methyl-1H-imidazol-2-yl)thieno[2,3-d]pyrimidin-4-amine] | D (D = 76-100% inhibition) | B (B = 26-45% inhibition) | D (D = 76-100% inhibition) | D (D = 76-100% inhibition) | A (A = 1-25% inhibition) | A (A = 1-25% inhibition) | B (B = 26-45% inhibition) | D (D = 76-100% inhibition) | B (B = 26-45% inhibition) | 76 to 100 | 26 to 45
3 | COc1cccc(Nc2nc(-c3nccn3C)nc3sc(-c4ccn(C(C)C)n4)c(C)c23)n1 [Compound 18, 6-(1-Isopropyl-1H-pyrazol-3-yl)-N-(6-methoxypyridin-2-yl)-5-methyl-2-(1-methyl-1H-imidazol-2-yl)thieno[2,3-d]pyrimidin-4-amine] | C (C = 46-75% inhibition) | C (C = 46-75% inhibition) | C (C = 46-75% inhibition) | C (C = 46-75% inhibition) | D (D = 76-100% inhibition) | D (D = 76-100% inhibition) | D (D = 76-100% inhibition) | C (C = 46-75% inhibition) | C (C = 46-75% inhibition) | 26 to 45 | 0
4 | CO[C@H]1CNC[C@@H](Nc2nc(-c3nccn3C)nc3sc(-c4ccn(C(C)C)n4)cc23)C1 [Compound 28, 6-(1-Isopropyl-1H-pyrazol-3-yl)-N-((3S,5R)-5-methoxypiperidin-3-yl)-2-(1-methyl-1H-imidazol-2-yl)thieno[2,3-d]pyrimidin-4-amine] | – | – | – | – | – | – | – | – | – | 76 to 100 | 46 to 75

Continued, in another order:

Row | KRas G12C mutant + SOS: % inh. (KRas G12C mutant) | KRas G12C mutant: % inh. (KRas G12C mutant) | KRas G12D mutant + SOS: % inh. (KRas G12D mutant; Table 7) | KRas G12D mutant + SOS: % inh. (KRas G12D mutant; Table 8) | KRas G12D mutant: % inh. (KRas G12D mutant; Table 7) | KRas G12D mutant: % inh. (KRas G12D mutant; Table 8) | Rho-A: % inh. (Rho-A) | KRas wild type + SOS: % inh. (KRas wild type) | KRas wild type: % inh. (KRas wild type) | Structure (SMILES) | inhibition (IL-6) [%] | inhibition (TNFα) [%]
5 | D (D = 76-100% inhibition) | C (C = 46-75% inhibition) | D (D = 76-100% inhibition) | D (D = 76-100% inhibition) | D (D = 76-100% inhibition) | D (D = 76-100% inhibition) | D (D = 76-100% inhibition) | D (D = 76-100% inhibition) | D (D = 76-100% inhibition) | COCC1CN(c2nc(-c3nccn3C)nc3sc(-c4ccn(C(C)C)n4)c(C)c23)CCO1 (racemic) [Compound 15, rac-4-(6-(1-Isopropyl-1H-pyrazol-3-yl)-5-methyl-2-(1-methyl-1H-imidazol-2-yl)thieno[2,3-d]pyrimidin-4-yl)-2-(methoxymethyl)morpholine] | 46 to 75 | 76 to 100
6 | D (D = 76-100% inhibition) | D (D = 76-100% inhibition) | D (D = 76-100% inhibition) | D (D = 76-100% inhibition) | D (D = 76-100% inhibition) | D (D = 76-100% inhibition) | C (C = 46-75% inhibition) | D (D = 76-100% inhibition) | D (D = 76-100% inhibition) | COCCO[C@H]1CC[C@@H](Nc2nc(-c3nccn3C)nc3sc(-c4ccn(C(C)C)n4)c(C)c23)C1 (racemic) [Compound 20, rac-6-(1-Isopropyl-1H-pyrazol-3-yl)-N-((1R,3S)-3-(2-methoxyethoxy)cyclopentyl)-5-methyl-2-(1-methyl-1H-imidazol-2-yl)thieno[2,3-d]pyrimidin-4-amine] | 76 to 100 | 46 to 75
7 | D (D = 76-100% inhibition) | D (D = 76-100% inhibition) | D (D = 76-100% inhibition) | D (D = 76-100% inhibition) | C (C = 46-75% inhibition) | C (C = 46-75% inhibition) | C (C = 46-75% inhibition) | D (D = 76-100% inhibition) | D (D = 76-100% inhibition) | COCC1(OC)CCN(c2nc(-c3nccn3C)nc3sc(-c4ccn(C(C)C)n4)c(C)c23)C1 (racemic) [Compound 27, rac-6-(1-Isopropyl-1H-pyrazol-3-yl)-4-(3-methoxy-3-(methoxymethyl)pyrrolidin-1-yl)-5-methyl-2-(1-methyl-1H-imidazol-2-yl)thieno[2,3-d]pyrimidine] | 76 to 100 | 76 to 100
8 | C (C = 46-75% inhibition) | C (C = 46-75% inhibition) | C (C = 46-75% inhibition) | C (C = 46-75% inhibition) | B (B = 26-45% inhibition) | B (B = 26-45% inhibition) | C (C = 46-75% inhibition) | C (C = 46-75% inhibition) | D (D = 76-100% inhibition) | CO[C@H]1C[C@H](CNc2nc(-c3nccn3C)nc3sc(-c4ccn(C(C)C)n4)c(C)c23)C1 [Compound 16, 6-(1-Isopropyl-1H-pyrazol-3-yl)-N-(((1r,3r)-3-methoxycyclobutyl)methyl)-5-methyl-2-(1-methyl-1H-imidazol-2-yl)thieno[2,3-d]pyrimidin-4-amine] | 46 to 75 | 1 to 25
9 | D (D = 76-100% inhibition) | C (C = 46-75% inhibition) | D (D = 76-100% inhibition) | D (D = 76-100% inhibition) | D (D = 76-100% inhibition) | D (D = 76-100% inhibition) | D (D = 76-100% inhibition) | D (D = 76-100% inhibition) | D (D = 76-100% inhibition) | COCCOCCNc1nc(-c2nccn2C)nc2sc(-c3ccn(C(C)C)n3)c(C)c12 [Compound 21, 6-(1-Isopropyl-1H-pyrazol-3-yl)-N-(2-(2-methoxyethoxy)ethyl)-5-methyl-2-(1-methyl-1H-imidazol-2-yl)thieno[2,3-d]pyrimidin-4-amine] | 46 to 75 | 1 to 25
